Measured values: the NIST ThermoML archive (doi:10.1021/je700210n)

Assay: xn = mol fraction of the nth substance listed
Settings: Liquid, determined from the liquid sample's weight and the volume of sample.

N#N [nitrogen] + C
Settings | mass density [kg/m3]
129.98 K, x1 = 0.2952 | 648.5
129.99 K, x1 = 0.4716 | 618.7
149.93 K, x1 = 0.5938 | 413.6
149.96 K, x1 = 0.4151 | 527.4
149.97 K, x1 = 0.1389 | 602.8
149.97 K, x1 = 0.3339 | 555.8
150 K, x1 = 0.5608 | 436
150.01 K, x1 = 0.504 | 474.9
159.36 K, x1 = 0.3238 | 492
159.96 K, x1 = 0.4275 | 427.8
159.98 K, x1 = 0.0224 | 577
159.99 K, x1 = 0.2659 | 511
160 K, x1 = 0.4156 | 432.5
169.98 K, x1 = 0.2384 | 436.4
169.99 K, x1 = 0.263 | 420.1
170.01 K, x1 = 0.2279 | 442.9
170.01 K, x1 = 0.3013 | 383.6
179.98 K, x1 = 0.1281 | 390.8
179.98 K, x1 = 0.1898 | 319

CC [ethane] + N#N
Settings | mass density [kg/m3]
149.97 K, x2 = 0.0702 | 558.2
169.87 K, x2 = 0.2041 | 544.8
169.91 K, x2 = 0.114 | 537.5
170 K, x2 = 0.036 | 525
209.93 K, x2 = 0.0236 | 479.7
210.04 K, x2 = 0.3352 | 482.6
249.66 K, x2 = 0.0761 | 416.5
249.98 K, x2 = 0.0518 | 414.7
250.03 K, x2 = 0.1483 | 407.9
269.91 K, x2 = 0.1969 | 350.5
269.94 K, x2 = 0.0305 | 378.2
269.97 K, x2 = 0.3581 | 284.6
270 K, x2 = 0.2503 | 332.5
270.01 K, x2 = 0.06 | 376.3
